Experimental findings from PubChem BioAssay AID328 (DTP/NCI, 2004) are described below.

For the assay, the system named is BDF1 mice, P388 leukemia ip, median survival T/C. The assay is described as follows: NCI In Vivo Anticancer Drug Screen. Data for tumor model P388 Leukemia (intraperitoneal) in B6D2F1 (BDF1) mice. The note with it: endpoint: median survival time, higher = longer survival. Summed up: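 Survival ratio, drug arm over vehicle arm, in mice with a transplanted tumour.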

Setting [1] is: dose: 100.0 mg/kg/injection, schedule: Q04DX003 (ip), vehicle: saline with Tween-80.
[2] abbreviates: dose: 200.0 mg/kg/injection, schedule: Q04DX003 (ip), vehicle: saline with Tween-80.
Setting [3] is: dose: 400.0 mg/kg/injection, schedule: Q04DX003 (ip), vehicle: saline with Tween-80.
[4] abbreviates: dose: 50.0 mg/kg/injection, schedule: Q01DX009 (ip), vehicle: Klucel (hydroxypropylcellulose) (HPC).
The mark [5] stands for this setting: dose: 100.0 mg/kg/injection, schedule: Q01DX009 (ip), vehicle: Klucel (hydroxypropylcellulose) (HPC).
[6] abbreviates: dose: 50.0 mg/kg/injection, schedule: Q01DX009 (ip), vehicle: saline with Tween-80.
[7] abbreviates: dose: 100.0 mg/kg/injection, schedule: Q01DX009 (ip), vehicle: saline with Tween-80.
The mark [8] stands for this setting: dose: 200.0 mg/kg/injection, schedule: Q01DX009 (ip), vehicle: saline with Tween-80.

Toxic doses and inconclusive results are not listed.

For the compound `CC(=O)O[C@H]1C(=O)O[C@@H]2C[C@H]3C(C)=CC(=O)[C@@H](O)[C@]3(C)[C@H]3[C@@]4(O)OC[C@]32[C@@H]1[C@@H](C)[C@H]4O`, the T/C is 227 % of control (dose: 0.13 mg/kg/injection, schedule: Q01DX010 (ip), vehicle: alcohol); 100 % of control (dose: 0.2 mg/kg/injection, schedule: Q01DX010 (ip), vehicle: alcohol); 150 % of control (dose: 0.4 mg/kg/injection, schedule: Q01DX010 (ip), vehicle: alcohol); 120 % of control (dose: 0.5 mg/kg/injection, schedule: Q01DX009 (ip), vehicle: saline with Tween-80); 166 % of control (dose: 0.6 mg/kg/injection, schedule: Q01DX010 (ip), vehicle: alcohol); 120 % of control (dose: 0.75 mg/kg/injection, schedule: Q01DX009 (ip), vehicle: saline). Also, the T/C is 110 % of control (dose: 0.75 mg/kg/injection, schedule: Q03HX008 (ip), vehicle: saline); 120 % of control (dose: 0.75 mg/kg/injection, schedule: Q03HX016 (ip), vehicle: saline); 100 % of control (dose: 1.0 mg/kg/injection, schedule: Q01DX009 (ip), vehicle: saline); 116 % of control (dose: 1.0 mg/kg/injection, schedule: Q01DX010 (ip), vehicle: other); 190 % of control (dose: 1.0 mg/kg/injection, schedule: Q01DX010 (ip), vehicle: saline); 100 % of control (dose: 1.5 mg/kg/injection, schedule: Q01DX005 (ip), vehicle: saline). Moreover, the T/C reads like this: (dose: 1.5 mg/kg/injection, schedule: Q03HX008 (ip), vehicle: saline) 110 % of control; (dose: 1.5 mg/kg/injection, schedule: Q03HX024 (ip), vehicle: saline) 110 % of control; (dose: 2.0 mg/kg/injection, schedule: Q01DX010 (ip), vehicle: alcohol) 120 % of control; (dose: 2.0 mg/kg/injection, schedule: Q01DX010 (ip), vehicle: other) 120 % of control; (dose: 2.0 mg/kg/injection, schedule: Q01DX010 (ip), vehicle: saline) 190 % of control; (dose: 3.0 mg/kg/injection, schedule: Q01DX005 (ip), vehicle: saline) 120 % of control. Further, the T/C is 120 % of control (dose: 4.0 mg/kg/injection, schedule: Q01DX010 (ip), vehicle: alcohol); 190 % of control (dose: 4.0 mg/kg/injection, schedule: Q01DX010 (ip), vehicle: saline); 100 % of control (dose: 6.0 mg/kg/injection, schedule: Q01DX005 (ip), vehicle: saline); 90 % of control (dose: 6.0 mg/kg/injection, schedule: Q01DX009 (ip), vehicle: saline); 213 % of control (dose: 6.0 mg/kg/injection, schedule: Q01DX010 (ip), vehicle: alcohol); 95 % of control (dose: 6.0 mg/kg/injection, schedule: Q04DX003 (ip), vehicle: saline). The T/C is, setting by setting: (dose: 6.0 mg/kg/injection, schedule: Q08DX002 (ip), vehicle: saline) 100 % of control; (dose: 8.0 mg/kg/injection, schedule: Q01DX009 (ip), vehicle: saline) 116 % of control; (dose: 8.0 mg/kg/injection, schedule: Q01DX010 (ip), vehicle: other) 158 % of control; (dose: 9.0 mg/kg/injection, schedule: Q01DX010 (ip), vehicle: alcohol) 159 % of control; (dose: 12.0 mg/kg/injection, schedule: Q01DX001 (ip), vehicle: saline) 110 % of control; (dose: 12.0 mg/kg/injection, schedule: Q01DX005 (ip), vehicle: saline) 120 % of control. For the same compound, the T/C is, setting by setting: (dose: 12.0 mg/kg/injection, schedule: Q08DX002 (ip), vehicle: saline) 95 % of control; (dose: 13.0 mg/kg/injection, schedule: Q01DX010 (ip), vehicle: alcohol) 213 % of control; (dose: 24.0 mg/kg/injection, schedule: Q04DX003 (ip), vehicle: saline) 100 % of control; (dose: 24.0 mg/kg/injection, schedule: Q08DX002 (ip), vehicle: saline) 100 % of control; (dose: 48.0 mg/kg/injection, schedule: Q04DX003 (ip), vehicle: saline) 100 % of control; (dose: 48.0 mg/kg/injection, schedule: Q08DX002 (ip), vehicle: saline) 100 % of control. Further, the T/C reads like this: (dose: 96.0 mg/kg/injection, schedule: Q01DX001 (ip), vehicle: saline) 110 % of control; (dose: 96.0 mg/kg/injection, schedule: Q08DX002 (ip), vehicle: saline) 100 % of control; (dose: 192.0 mg/kg/injection, schedule: Q01DX001 (ip), vehicle: saline) 110 % of control; (dose: 57.0 micrograms/kg/injection, schedule: Q01DX010 (ip), vehicle: alcohol) 111 % of control; (dose: 87.0 micrograms/kg/injection, schedule: Q01DX010 (ip), vehicle: alcohol) 107 % of control.

On to `O=[N+]([O-])c1cccc(OCCOc2ccccc2)c1`, for which the T/C reads like this: under setting [1], 100 % of control; under setting [2], 115 % of control; under setting [3], 105 % of control.

Consider `Nc1cncc2ncc(-c3ccc(Cl)c(Cl)c3)nc12`, for which the T/C is 91 % of control (dose: 100.0 mg/kg/injection, schedule: Q01DX001 (ip), vehicle: saline sonified); 100 % of control (dose: 200.0 mg/kg/injection, schedule: Q01DX001 (ip), vehicle: saline sonified); 104 % of control (dose: 400.0 mg/kg/injection, schedule: Q01DX001 (ip), vehicle: saline sonified).

As for `COc1cc(N(CCCl)CCCl)ccc1/C=N\NC(=O)c1cccnc1`, the T/C (dose: 25.0 mg/kg/injection, schedule: Q01DX009 (ip), vehicle: Klucel (hydroxypropylcellulose) (HPC)) was 98 % of control; the T/C under setting [4] was 97 % of control; the T/C under setting [5] was 112 % of control.

`CC1=C(c2ccccc2)C(c2ccccc2)C(/C=C/c2ccccc2)=NC=C1c1ccccc1` (stereo unspecified): the T/C by setting is: under setting [6], 108 % of control; under setting [7], 94 % of control; under setting [8], 97 % of control.

As for `CC(C)=CCC/C(C)=C/CN1C(=O)CC(C)=C(C)C1=O`, the T/C was 100 % of control under setting [1], 100 % of control under setting [2] and 104 % of control under setting [3].

As for `CC(C)NCc1ccccc1Sc1ccccc1CNC(C)C`, the T/C is, setting by setting: (dose: 100.0 mg/kg/injection, schedule: Q01DX001 (ip), vehicle: saline with Tween-80) 103 % of control; (dose: 100.0 mg/kg/injection, schedule: Q04DX002 (ip), vehicle: saline) 103 % of control.

In the case of `CN(C)c1cc(=O)c2c(ccc3ccccc32)o1`, the T/C (dose: 6.25 mg/kg/injection, schedule: Q01DX009 (ip), vehicle: saline with Tween-80) was 117 % of control; the T/C (dose: 12.5 mg/kg/injection, schedule: Q01DX009 (ip), vehicle: saline with Tween-80) is 97 % of control; the T/C (dose: 25.0 mg/kg/injection, schedule: Q01DX009 (ip), vehicle: saline with Tween-80) is 106 % of control; the T/C under setting [6] was 106 % of control.

For `OCc1cc(Cl)ccc1O`, the T/C under setting [4] was 101 % of control; the T/C under setting [5] was 103 % of control; the T/C (dose: 100.0 mg/kg/injection, schedule: Q04DX003 (ip), vehicle: other) was 100 % of control; the T/C (dose: 132.0 mg/kg/injection, schedule: Q04DX003 (ip), vehicle: other) was 95 % of control; the T/C (dose: 200.0 mg/kg/injection, schedule: Q01DX009 (ip), vehicle: Klucel (hydroxypropylcellulose) (HPC)) is 110 % of control; the T/C (dose: 300.0 mg/kg/injection, schedule: Q04DX003 (ip), vehicle: other) is 108 % of control. For the same compound, the T/C (dose: 400.0 mg/kg/injection, schedule: Q04DX003 (ip), vehicle: other) is 109 % of control.

For the compound `CN(C)CCC(=O)O`, the T/C was 100 % of control under setting [7]; 95 % of control under setting [8]; 90 % of control (dose: 400.0 mg/kg/injection, schedule: Q01DX009 (ip), vehicle: saline with Tween-80).

With `COc1cccc2c1C(=O)c1c(O)c3c(c(O)c1C2=O)C[C@@](O)(C(=O)CO)C[C@@H]3OC1CC(NC(=S)Nc2ccc(F)cc2)C(O)C(C)O1` (stereo partly specified), the T/C was 90 % of control (dose: 6.25 mg/kg/injection, schedule: Q01DX009 (ip), vehicle: saline); 150 % of control (dose: 25.0 mg/kg/injection, schedule: Q01DX009 (ip), vehicle: saline); 106 % of control (dose: 50.0 mg/kg/injection, schedule: Q01DX009 (ip), vehicle: saline); 122 % of control (dose: 100.0 mg/kg/injection, schedule: Q01DX009 (ip), vehicle: saline).
